# Where “and” joins values, the source holds several entries; their conditions need not be identical. Equal entries are not always repeated.
# Assay: Freeze/thaw stability of AST-2660 in human urine (LC-MS/MS)
# Type: in vitro ADME
# Description: The detection method established in example 6 was used to detect the content of AST-2660 in the human urine to be tested.
# Matrix: the mixed normal human urine containing an additive Na2HPO4·12H2O. • a: the internal standard working solution: AST-2660-D8 was taken, dissolved with methanol, and diluted to prepare a solution containing about 100 ng per 1 ml. • b: the solution to be tested (no internal standard compound was added to the solution to be tested at this time): it was obtained by taking a blood sample to be tested. • c: the standard working solution (no internal standard compound was added to the standard working solution at this time): an appropriate amount of AST-2660 was taken and accurately weighed, dissolved with methanol and diluted to prepare a solution containing about 1.0 mg per 1 ml, which was used as the standard working stock solution. An appropriate amount of the standard working stock solution was taken, added with the matrix and diluted to prepare standard working solutions with different concentrations containing about 200 ng, 160 ng, 100 ng, 50 ng, 10 ng, 2.0 ng, 1.0 ng and 0.5 ng per 1 ml, respectively. (The solution was stored at −70° C.) • d: the quality control sample solution: an appropriate amount of AST-2660 was taken and accurately weighed, dissolved with methanol, and diluted to prepare a solution containing about 10 μg per 1 ml, which was used as the quality control working stock solution. An appropriate amount of the quality control working stock solution was taken, and added with the matrix to prepare quality control working solutions with different concentrations containing about 150 ng, 60 ng, 15 ng, 1.5 ng and 0.5 ng per 1 ml. (The solution was stored at −70° C.)
# The solution to be tested, the standard working solution and the quality control sample solution were thawed at room temperature and mixed uniformly. 100 μl of the above solution was respectively taken, added with 20 μl of the internal standard and 500 μl of methanol, and vortexed for 3 minutes to mix uniformly, and then centrifuged for 30 minutes at 2143 rcf. 450 μl of supernatant was taken, and then centrifuged for 10 minutes in a 96-well plate at 2143 rcf. It was obtained by taking 300 μl of supernatant.
# Liquid phase conditions: A SHARC 1, 3 μm, 2.1*50 mm or chromatograph column with equivalent performance was used; methanol solution containing low content of ammonium acetate was used; mobile phase B was acetonitrile; the gradient elution was performed according to the following table; column temperature: 20° C.; injection volume: 5 μl.
# Mass spectrometric conditions: electrospray ion source with negative ion scanning mode; spray potential: −4500 V; ion source temperature: 500° C.; collision energy (CE): −22 eV; declustering potential (DP): −55V; entrance potential (EP): −10V; collision chamber exit potential (CXP): −16V; dwell time: 100 ms; high purity nitrogen was used for all gases; AST-2660 ions pairs: m/z 147.0→m/z 62.9; the internal standard AST-2660-D8 ion pairs: m/z 155.0→m/z 62.9.
# The AST-2660 standard working solution, blank sample, zero concentration sample, solution to be tested and quality control working solution with different concentrations after extraction were respectively taken and injected into LC-MS/MS for detection.
# Calculation results: the relationship function y=f (x) of the ratio of the peak area of AST-2660 to that of the internal standard was obtained from AST-2660 standard working solutions with different concentrations. The ratio of the peak area of AST-2660 to that of the internal standard was determined from the solution to be tested after extraction, and substituted into the relationship function y=f (x) to calculate the concentration of the metabolite II in the solution to be tested.
# [1] = human urine, DilQC (10-fold dilution) nominal 1500 ng/ml, 3 freeze/thaw cycles at −70° C.
# [2] = human urine, DilQC (10-fold dilution) nominal 1500 ng/ml, 5 freeze/thaw cycles at −70° C.
# [3] = human urine, QC1 nominal 1.50 ng/ml, 3 freeze/thaw cycles at −70° C.
# [4] = human urine, QC1 nominal 1.50 ng/ml, 5 freeze/thaw cycles at −70° C.
# [5] = human urine, QC4 nominal 150 ng/ml, 3 freeze/thaw cycles at −70° C.
# [6] = human urine, QC4 nominal 150 ng/ml, 5 freeze/thaw cycles at −20° C.
# [7] = human urine, QC4 nominal 150 ng/ml, 5 freeze/thaw cycles at −70° C.
compound,measurement,setting,value
O=P([O-])(N1CC1)N1CC1.[Na+] [AST-2660],"RE (accuracy), range over three concentration levels","freezing/thawing at −70° C. for up to 3 cycles, 1.5, 150 and 1500 ng/ml",RE: −11.8% to 12.5%
same,"AST-2660 concentration, Mean value",[1],1540 ng/mL
same,"AST-2660 concentration, single replicates",[1],1650 ng/ml and 1500 ng/ml (2×) and 1510 ng/ml
same,RE (%) vs nominal,[1],2.7%
same,"AST-2660 concentration, single replicates","human urine, DilQC (10-fold dilution) nominal 1500 ng/ml, 5 freeze/thaw cycles at −20° C.",<LLOQ (5.00) ng/ml
same,"AST-2660 concentration, Mean value",[2],1508 ng/mL
same,"AST-2660 concentration, single replicates",[2],1490 ng/ml and 1500 ng/ml (2×) and 1540 ng/ml
same,RE (%) vs nominal,[2],0.5%
same,"AST-2660 concentration, Mean value",[3],1.60 ng/mL
same,"AST-2660 concentration, single replicates",[3],1.69 ng/mL and 1.72 ng/mL and 1.47 ng/mL and 1.51 ng/mL
same,RE (%) vs nominal,[3],6.5%
same,"AST-2660 concentration, single replicates","human urine, QC1 nominal 1.50 ng/ml, 5 freeze/thaw cycles at −20° C.",<LLOQ (0.500) ng/ml
same,"AST-2660 concentration, Mean value",[4],1.73 ng/mL
same,"AST-2660 concentration, single replicates",[4],2.14 ng/mL and 1.58 ng/mL and 1.68 ng/mL and 1.52 ng/mL
same,RE (%) vs nominal,[4],15.3%
same,"AST-2660 concentration, Mean value",[5],149 ng/mL
same,"AST-2660 concentration, single replicates",[5],145 ng/ml and 148 ng/ml (2×) and 154 ng/ml
same,RE (%) vs nominal,[5],−0.8%
same,"AST-2660 concentration, Mean value",[6],13 ng/mL
same,"AST-2660 concentration, single replicates",[6],12.2 ng/mL and 13.0 ng/mL and 12.3 ng/mL and 12.5 ng/mL
same,RE (%) vs nominal,[6],−91.7%
same,"AST-2660 concentration, Mean value",[7],173 ng/mL
same,"AST-2660 concentration, single replicates",[7],172 ng/ml (2×) and 169 ng/ml and 178 ng/ml
same,RE (%) vs nominal,[7],15.2%
same,reduction of AST-2660 content,"human urine, freeze-thaw process from −20° C. to room temperature",~90%
same,change of AST-2660 content (in words),"human urine, freeze-thaw process from −70° C. to room temperature",almost no reduction

# Source: patent US20240140970A1, “A […], AND PREPARATION METHOD AND USE THEREOF” (ASCENTAWITS PHARMACEUTICALS, LTD., priority 2021, published 2024)
